Test results published in PMC8952364, “Polyphenols as Inhibitors of Antibiotic Resistant Bacteria—Mechanisms Underlying Rutin Interference with Bacterial Virulence” (Pharmaceuticals, 2022).
Values after ≈ are worked out from the molar mass of the structure shown. Read-outs that look alike come from different tables or passages of the source.

Tests used:
E. coli IMD989 = experiment: Antimicrobial microdilution assay (MIC/MBC); format: cell-based, Escherichia coli; details: Escherichia coli, IMD989; for MIC: 37 °C, 24 h, read-out: MIC; for MBC: subcultivation, 24 h at 37 °C, read-out: MBC
Method: (§1) The bacterial suspension (0.5 Mc Farland) was prepared, and twenty-fold dilutions of these suspensions were mixed in a 1:10 ratio with the corresponding polyphenol dilution (0.0039–1 mg/mL). Microtiter plates were incubated at 37 °C for 24 h. The lowest concentrations without visible growth (under a binocular microscope) were defined as MICs. The bactericidal concentrations (MBCs) were determined by serial subcultivation of 2 μL of the well’s content and further incubation for 24 h at 37 °C. Streptomycin (SigmaAldrich, Darmstadt, Germany) was used as a positive control. The polyphenols were obtained from Extrasynthese, Rhone, France (rutin, isoquercitrin) and SigmaAldrich, Germany (hesperetin, hesperidin, naringenin, naringin, taxifolin, morin, chlorogenic acid, ferulic acid, p-coumaric acid, and gallic acid). The stock compounds were prepared in ethanol (30%), and adequate ethanol concentrations were used as the negative control in the assays. Experiments were done in triplicate.

E. coli IBRS E003 = experiment: Antimicrobial microdilution assay (MIC/MBC); format: cell-based, Escherichia coli; details: Escherichia coli, IBRSE003; for MIC: 37 °C, 24 h, read-out: MIC; for MBC: subcultivation, 24 h at 37 °C, read-out: MBC
Method: as §1

P. aeruginosa IBRS P001 = experiment: Antimicrobial microdilution assay (MIC/MBC); format: cell-based, Pseudomonas aeruginosa; details: Pseudomonas aeruginosa, IBRSP001; for MIC: 37 °C, 24 h, read-out: MIC; for MBC: subcultivation, 24 h at 37 °C, read-out: MBC
Method: as §1

P. aeruginosa MMA83 = experiment: Antimicrobial microdilution assay (MIC/MBC); format: cell-based, Pseudomonas aeruginosa; details: for MIC: 37 °C, 24 h, read-out: MIC; for MBC: subcultivation, 24 h at 37 °C
Method: as §1

HaCaT cells = experiment: Cytotoxicity in HaCaT cell line (crystal violet assay); format: cell-based, human; details: HaCaT; for IC50: Homo sapiens, 24 h treatment, crystal violet, read-out: IC50 (compound concentration that inhibited 50% of the cell growth)
Method: For determination of the polyphenols’ cytotoxic effect, a crystal violet assay was used, with modifications. The cytotoxic effect of polyphenols was analyzed on spontaneously immortalized human skin keratinocytes (HaCaT, AddexBio No. T0020001, San Diego, CA, USA) cell lines. […] Cells (1 × 10^4 cells/well) were seeded in a 96-well plate (Sarstedt, Nümbrecht, Germany) 24 h before treatment. […] Cells were incubated with the compounds for 24 h. […] After crystal violet was removed, the plates were washed in a stream of tap water and left to air-dry at room temperature for 24 h. The absorbance was measured in a microplate reader (Multiskan™ FC Microplate Photometer, Thermo Scientific™) at 590 nm. The results were expressed as IC50 value in μg/mL. The criterion used to categorize the cytotoxic activity polyphenols was as follows: […] All analyses were performed in triplicate; each replicate was also quantified three times. Data were expressed as mean standard deviation, where applicable.

K. pneumoniae IT977 = experiment: Antimicrobial microdilution assay (MIC/MBC); format: cell-based, Klebsiella pneumoniae; details: Klebsiella pneumoniae, IT977; for MIC: 37 °C, 24 h, read-out: MIC; for MBC: subcultivation, 24 h at 37 °C, read-out: MBC
Method: as §1

K. pneumoniae Ni9 = experiment: Antimicrobial microdilution assay (MIC/MBC); format: cell-based, Klebsiella pneumoniae; details: Klebsiella pneumoniae, NI9; for MIC: 37 °C, 24 h, read-out: MIC; for MBC: subcultivation, 24 h at 37 °C, read-out: MBC
Method: as §1

[1] = tested on: P. aeruginosa IBRS P001 biofilm; experiment: Crystal violet antibiofilm assay (biofilm formation); format: cell-based, Pseudomonas aeruginosa; details: MIC and sub-MIC, 24 h, crystal violet, Figure 1
Method: After incubation, each well was washed twice with sterile PBS (phosphate-buffered saline, pH 7.4) and fixed with methanol for 10 min. After removal of methanol the plate was air-dried. The biofilm was stained with 0.1% crystal violet (Bio-Merieux, Marcy l’Etoile, France) for 30 min. The plate was washed with water, air dried, and the stain was dissolved with 200 μL of 96% ethanol (Zorka, Sabac, Serbia). The absorbance was read at 620 nm on a Multiskan™ FC microplate photometer (Thermo Scientific™, Waltham, MA, USA). The results are presented as biofilm forming capacity (%) compared to control.

A. xylosoxidans 37F = experiment: Antimicrobial microdilution assay (MIC/MBC); format: cell-based, Achromobacter xylosoxidans; details: Achromobacter xylosoxidans, 37F; for MIC: 37 °C, 24 h, read-out: MIC; for MBC: subcultivation, 24 h at 37 °C, read-out: MBC
Method: as §1

S. infantis 1371/1 = experiment: Antimicrobial microdilution assay (MIC/MBC); format: cell-based, Salmonella Infantis; details: Salmonella enterica, 1371/1; for MIC: 37 °C, 24 h, read-out: MIC; for MBC: subcultivation, 24 h at 37 °C, read-out: MBC
Method: as §1

[2] = tested on: Methicillin resistant S. aureus IBRS MRSA 011; experiment: Antimicrobial microdilution assay (MIC/MBC); format: cell-based, Staphylococcus aureus; details: Staphylococcus aureus, MRSA
Method: as §1

P. aeruginosa MTCC 2488 = tested on: P. aeruginosa MTCC 2488; parameters: method as in PMID 32057619; details: cited from earlier work
A. baumannii S2/2 = experiment: Antimicrobial microdilution assay (MIC/MBC); format: cell-based, Acinetobacter baumannii; details: Acinetobacter baumannii, S2/2; for MIC: 37 °C, 24 h, read-out: MIC; for MBC: subcultivation, 24 h at 37 °C, read-out: MBC
Method: as §1

A. baumannii 6077/12 = experiment: Antimicrobial microdilution assay (MIC/MBC); format: cell-based, Acinetobacter baumannii; details: Acinetobacter baumannii, 6077/12; for MIC: 37 °C, 24 h, read-out: MIC; for MBC: subcultivation, 24 h at 37 °C, read-out: MBC
Method: as §1

[3] = tested on: E. coli (fluoroquinolones and ampicillin-resistant); parameters: method as in A previous investigation; details: ref A previous investigation; cited from earlier work
[4] = Pseudomonas aeruginosa, MMA83, read-out: MBC
[5] = subcultivation, 24 h at 37 °C, read-out: MBC

| SMILES | MIC (E. coli IMD989) | MBC (E. coli IMD989) | MIC (E. coli IBRS E003) | MBC (E. coli IBRS E003) | MIC (P. aeruginosa IBRS P001) | MBC (P. aeruginosa IBRS P001) | MIC (P. aeruginosa MMA83; Pseudomonas aeruginosa, MMA83) | MBC (P. aeruginosa MMA83; [4]) | MIC (K. pneumoniae IT977) | MBC (K. pneumoniae IT977) | MIC (K. pneumoniae Ni9) | MBC (K. pneumoniae Ni9) | MIC (A. xylosoxidans 37F) | MBC (A. xylosoxidans 37F) | MIC (S. infantis 1371/1) | MBC (S. infantis 1371/1) | MIC (A. baumannii S2/2) | MBC (A. baumannii S2/2) | MIC (A. baumannii 6077/12) | MBC (A. baumannii 6077/12) | other results |
| --- | --- | --- | --- | --- | --- | --- | --- | --- | --- | --- | --- | --- | --- | --- | --- | --- | --- | --- | --- | --- | --- |
| C[C@@H]1O[C@@H](O[C@H]2[C@H](Oc3cc(O)c4c(c3)O[C@H](c3ccc(O)cc3)CC4=O)O[C@H](CO)[C@@H](O)[C@@H]2O)[C@H](O)[C@H](O)[C@H]1O [Naringin, naringin] | > 1000 µg/mL | > 1000 µg/mL | > 1000 µg/mL | > 1000 µg/mL | 250 µg/mL (≈ 431 µM) | 500 µg/mL (≈ 861 µM) | > 1000 µg/mL | > 1000 µg/mL | > 1000 µg/mL | > 1000 µg/mL | > 1000 µg/mL | > 1000 µg/mL | > 1000 µg/mL | > 1000 µg/mL | > 1000 µg/mL | > 1000 µg/mL | > 1000 µg/mL | > 1000 µg/mL | > 1000 µg/mL | > 1000 µg/mL | MBC (P. aeruginosa MMA83): >1000 µg/mL; IC50 (HaCaT cells): > 1000 µg/mL; reduction of biofilm formation (biomass), in words [1]: not significantly altered; MIC ([2]; 37 °C, 24 h, read-out: MIC): 500 µg/mL (≈ 861 µM); MBC [2, 5]: 1000 µg/mL (≈ 1720 µM); Bactericidal concentration (P. aeruginosa MTCC 2488): 1.4 mg/mL; IC50 (P. aeruginosa MTCC 2488): 570 µg/mL (≈ 982 µM) |
| [H]/N=C(/N)N[C@H]1[C@H](O)[C@@H](O)[C@H](O[C@@H]2O[C@@H](C)[C@](O)(C=O)[C@H]2O[C@@H]2O[C@@H](CO)[C@H](O)[C@@H](O)[C@@H]2NC)[C@@H](N/C(N)=N\[H])[C@@H]1O [Streptomycin, reference compound] | 1000 µg/mL (≈ 1720 µM) | > 1000 µg/mL | 100 µg/mL (≈ 172 µM) | 200 µg/mL (≈ 344 µM) | 50 µg/mL (≈ 86 µM) | 100 µg/mL (≈ 172 µM) | > 1000 µg/mL | > 1000 µg/mL | > 1000 µg/mL | > 1000 µg/mL | > 1000 µg/mL | > 1000 µg/mL | > 1000 µg/mL | > 1000 µg/mL | > 1000 µg/mL | > 1000 µg/mL | > 1000 µg/mL | > 1000 µg/mL | > 1000 µg/mL | > 1000 µg/mL | MBC ([2]; 24 h): 800 µg/mL (≈ 1380 µM); MIC ([2]; 24 h): 100 µg/mL (≈ 172 µM) |
| O=C(O)/C=C/c1ccc(O)cc1 [p-Coumaric Acid, p-coumaric acid] | 1000 µg/mL (≈ 6090 µM) | 1000 µg/mL (≈ 6090 µM) | > 1000 µg/mL | > 1000 µg/mL | 500 µg/mL (≈ 3050 µM) | 1000 µg/mL (≈ 6090 µM) | 500 µg/mL (≈ 3050 µM) | 1000 µg/mL (≈ 6090 µM) | 1000 µg/mL (≈ 6090 µM) | 1000 µg/mL (≈ 6090 µM) | 1000 µg/mL (≈ 6090 µM) | 1000 µg/mL (≈ 6090 µM) | 1000 µg/mL (≈ 6090 µM) | 1000 µg/mL (≈ 6090 µM) | 1000 µg/mL (≈ 6090 µM) | 1000 µg/mL (≈ 6090 µM) | 500 µg/mL (≈ 3050 µM) | 500 µg/mL (≈ 3050 µM) | 500 µg/mL (≈ 3050 µM) | 500 µg/mL (≈ 3050 µM) | cytotoxicity category (HaCaT cells; maximal tested concentrations (1 mg/mL)): no cytotoxicity (IC50 > 501 µg/mL = no cytotoxicity); IC50 (HaCaT cells): > 1000 µg/mL; MIC [3]: 1000 µg/mL (≈ 6090 µM); MIC ([2]; 37 °C, 24 h, read-out: MIC): 500 µg/mL (≈ 3050 µM); MBC [2, 5]: 1000 µg/mL (≈ 6090 µM) |
